Laboratory results published in the OligoGym collection.
Values joined by “and” are separate entries in the source; they are usually repeats but may differ in a detail not shown here. Equal entries are not always repeated. These antisense oligonucleotides have a phosphorothioate backbone; sugars and methylation of C are not fully specified.

Key:
Conditions in all cases: ASO
[1] = molecular target: SMAD3
[2] = molecular target: SMAD1
[3] = molecular target: PIK3CD
[4] = molecular target: PLA2G4A
Further: test concentration or dose not given here.

In the case of CCCCTCCGATGTAGTAGA, the remaining target (mRNA or protein) (fraction of control) [1] is reported as 0.54.
TTAAGCCACCAGAGCAGA showed a remaining target (mRNA or protein) (fraction of control) [1] of at least 1.
For GAGGCACTCTGCGAAGAC, the remaining target (mRNA or protein) (fraction of control) [1] was 0.49.
With TTCACCAAAGCATCAACA the remaining target (mRNA or protein) (fraction of control) [2] was 0.18.
In the case of TGCTAGTAACATCCTGGC, the remaining target (mRNA or protein) (fraction of control) [2] is reported as 0.25.
With GCATCCTGCGTTGTTACTTC the remaining target (mRNA or protein) (fraction of control) [3] was 0.89 and 0.35.
Sequence TGAAACCATCCACCAACA has a remaining target (mRNA or protein) (fraction of control) [2] of 0.3.
ACAGTAGTAGGATGAAAT was tested, and the remaining target (mRNA or protein) (fraction of control) [2] was 0.41.
For AAAGATGAACTCCTTTTC, the remaining target (mRNA or protein) (fraction of control) [2] was 0.65.
For AGACCCCTGTGGGCAGCAGG, the remaining target (mRNA or protein) (fraction of control) [3] was 0.78 and 0.46.
Sequence CCAAGTTATTATGTGCTG has a remaining target (mRNA or protein) (fraction of control) [1] of at least 1.
For TGACTCATCCATCCTTCA, the remaining target (mRNA or protein) (fraction of control) [2] was 0.19.
CAGCCTGCCATCCAGAGA was tested, and the remaining target (mRNA or protein) (fraction of control) [2] was 0.46.
AGTGGCGTTGAGTGGCAT showed a remaining target (mRNA or protein) (fraction of control) [2] of 0.75.
For CCCCTACCATACTTGATG, the remaining target (mRNA or protein) (fraction of control) [1] was 0.38.
For CGTTGCTCGTCCTCCAGCTC, the remaining target (mRNA or protein) (fraction of control) [3] was 0.47 and 0.27.
GCGGCACGTCCTTGGTGGAC was tested, and the remaining target (mRNA or protein) (fraction of control) [3] was 0.93 and 0.54.
TTGTTTAAATTTCTGAAT was tested, and the remaining target (mRNA or protein) (fraction of control) [2] was 0.5.
Work on TCTTCTTCCTTGACAACA yielded a remaining target (mRNA or protein) (fraction of control) [1] of 0.92.
With GTCGGTTCTTTCCCGTTAGG the remaining target (mRNA or protein) (fraction of control) [3] was 0.52 and 0.35.
For AGACCAAATGCCATCCCA, the remaining target (mRNA or protein) (fraction of control) [1] was 0.18.
In the case of GGAGGGCGTGCGGGCGGC, the remaining target (mRNA or protein) (fraction of control) [1] is reported as at least 1.
In the case of GCGCAGCTGGCAGGGCTGGG, the remaining target (mRNA or protein) (fraction of control) [3] is reported as 0.86 and ≥ 1.
With CTCCCCAGCCTTTGACGA the remaining target (mRNA or protein) (fraction of control) [1] was 0.54.
Sequence TCCTTCTGCTTGGAACCA has a remaining target (mRNA or protein) (fraction of control) [2] of 0.3.
TCGCCCTGTTTCCACCCA gave a remaining target (mRNA or protein) (fraction of control) [2] of 0.1.
In the case of ACCAATGTGCTTGGTCCCCA, the remaining target (mRNA or protein) (fraction of control) [3] is reported as ≥ 1 and 0.37.
Work on AGAACTGGTGTCTCTACT yielded a remaining target (mRNA or protein) (fraction of control) [1] of 0.51.
AGTCCACCCCAGGGGGCATC was tested, and the remaining target (mRNA or protein) (fraction of control) [3] was ≥ 1 and 0.45.
Work on ACATTCATAATGACAGCA yielded a remaining target (mRNA or protein) (fraction of control) [2] of 0.59.
In the case of CCATTTCTCCTCCTGCCC, the remaining target (mRNA or protein) (fraction of control) [1] is reported as 0.62.
Sequence CATAAGCAACCGCCTGAA has a remaining target (mRNA or protein) (fraction of control) [2] of 0.57.
In the case of CCAGGGCTGGGAGGAGCCAC, the remaining target (mRNA or protein) (fraction of control) [3] is reported as 0.91 and 0.69.
With CGGCTGCTCCAGGGACCACA the remaining target (mRNA or protein) (fraction of control) [3] was 0.63 and 0.38.
GGGGCATCCTGCGTTGTTAC was tested, and the remaining target (mRNA or protein) (fraction of control) [3] was at least 1.
GTAGGTGCTGCTGCTGCT showed a remaining target (mRNA or protein) (fraction of control) [2] of 0.49.
Work on GTGCGGGCGGCGAGGAGC yielded a remaining target (mRNA or protein) (fraction of control) [1] of 0.86.
Work on TCTGGTGGTCACTGGTTT yielded a remaining target (mRNA or protein) (fraction of control) [1] of 0.64.
Work on CTCTGGGTTTGCTCGTGT yielded a remaining target (mRNA or protein) (fraction of control) [1] of 0.56.
In the case of TTGTGAACCAGAAACGCC, the remaining target (mRNA or protein) (fraction of control) [4] is reported as 0.08.
With GATGGTTGGGCAATCTTT the remaining target (mRNA or protein) (fraction of control) [4] was at least 1.
Work on TGGATATGGTGAAATAAA yielded a remaining target (mRNA or protein) (fraction of control) [2] of 0.83.
With TGCAGGTCCAAGTTATTA the remaining target (mRNA or protein) (fraction of control) [1] was 0.81.
For AGCACTCCTTCAGCCCTT, the remaining target (mRNA or protein) (fraction of control) [4] was 0.29.
For ATAGCACTCCTTCAGCCC, the remaining target (mRNA or protein) (fraction of control) [4] was at least 1.
TTTGTCCTAAGTTACGGA was tested, and the remaining target (mRNA or protein) (fraction of control) [2] was 0.64.
Work on AGAGGTAAAGGGCATTGT yielded a remaining target (mRNA or protein) (fraction of control) [4] of at least 1.
With TGTTTGTGTCCATCGGCT the remaining target (mRNA or protein) (fraction of control) [2] was 0.47.
GCCCAAAACTCTGTTGAA gave a remaining target (mRNA or protein) (fraction of control) [4] of 0.
With GGCAGTCCACCCCAGGGGGC the remaining target (mRNA or protein) (fraction of control) [3] was 0.76 and 0.56.
Sequence GGGAAGTTAGTGTTTTCG has a remaining target (mRNA or protein) (fraction of control) [1] of at least 1.
Work on AAACGCCCAAAACTCTGT yielded a remaining target (mRNA or protein) (fraction of control) [4] of at least 1.
TGCTCGCCCTTCTTCCAG was tested, and the remaining target (mRNA or protein) (fraction of control) [1] was 0.61.
For GGCAGATTAAAGATGCTTTA, the remaining target (mRNA or protein) (fraction of control) [3] was 0.9 and 0.48.
ATTGATCTGGTCGCGCTG showed a remaining target (mRNA or protein) (fraction of control) [2] of 0.69.
AAATGACATGAGGCAGTC showed a remaining target (mRNA or protein) (fraction of control) [2] of 0.54.
Work on TTGGTCACAGAGGTCAAG yielded a remaining target (mRNA or protein) (fraction of control) [2] of 0.15.
With CCCCAGGGGGCATCCTGCGT the remaining target (mRNA or protein) (fraction of control) [3] was 0.81 and 0.96.
In the case of ACCCACTTGAAAAGTGGAGA, the remaining target (mRNA or protein) (fraction of control) [3] is reported as 0.99 and 0.8.
GCTGGACTTGTAAAGGAA showed a remaining target (mRNA or protein) (fraction of control) [2] of 0.57.
GAGCCGCTCGGCCTCTCC was tested, and the remaining target (mRNA or protein) (fraction of control) [2] was 0.23.
With CCGCCCGCCTGCTTTCTC the remaining target (mRNA or protein) (fraction of control) [2] was 0.12.
AGCTGCCAGAACTCAGTCTA was tested, and the remaining target (mRNA or protein) (fraction of control) [3] was 0.53 and 0.48.
AGTGGATGATGGTTGGGC showed a remaining target (mRNA or protein) (fraction of control) [4] of at least 1.
Sequence GGTTGGGCAATCTTTCTC has a remaining target (mRNA or protein) (fraction of control) [4] of at least 1.
With ATGAAGGAGGCGTTTCCGTT the remaining target (mRNA or protein) (fraction of control) [3] was 0.81 and 0.32.
GGGTCGGTGAAGCCATCC was tested, and the remaining target (mRNA or protein) (fraction of control) [1] was at least 1.
GCAGCTCAAGGCCTTTTC gave a remaining target (mRNA or protein) (fraction of control) [2] of 0.58.
CCTGTTGACATTGGAGAG was tested, and the remaining target (mRNA or protein) (fraction of control) [1] was 0.72.
TCCATGGTTCACAGACTG was tested, and the remaining target (mRNA or protein) (fraction of control) [2] was 0.2.
